Legend:
[1] = system: Spodoptera littoralis; assay: Antifeedant activity against Spodoptera littoralis assessed as inhibition of diet consumption at 20 ug/cm2 by leaf disk choice assay relative to control; format: functional; settings: foliar
[2] = system: Spodoptera littoralis; assay: Antifeedant activity against Spodoptera littoralis assessed as inhibition of diet consumption by leaf disk choice assay relative to control; format: functional

## CC1=C(CO)C(=O)O[C@@H]([C@@H](C)[C@H]2CC[C@H]3[C@@H]4C[C@H]5O[C@]56CC=CC(=O)[C@]6(C)[C@H]4CC[C@]23C)C1 [JABOROSALACTONE A]
[1]
  inhibition at 20 µg/cm2: 74%

## CC1=C(CO)C(=O)O[C@@H]([C@@H](C)[C@H]2CC[C@H]3[C@@H]4C[C@@H](O)C5=CC=CC(=O)[C@]5(C)[C@H]4CC[C@]23C)C1 [JABOROSALACTONE B]
[2]
  inhibition (INH): 19%

## CC1=C(CO)C(=O)O[C@@H]([C@@H](C)[C@H]2CC[C@H]3[C@@H]4C[C@@H](O)[C@@]5(O)CC=CC(=O)[C@]5(C)[C@H]4CC[C@]23C)C1 [JABOROSALACTONE D]
[2]
  inhibition (INH): -19%

From ChEMBL document CHEMBL3046254, “Antifeedant Activity Evaluation of Withanolides from Jaborosa integrifolia” (2000)
